{
  "source": "paper PMC8546421",
  "about": "“Molecular modelling of the FOXO4-TP53 interaction to design senolytic peptides for the elimination of senescent cancer cells” (EBioMedicine, 2021)",
  "assay_type_in_all_cases": "cell-based, human",
  "key": {"FOXO4-TP53 interaction": {"tested_on": "FOXO4-TP53 interaction", "assay": "Co-immunoprecipitation of Myc-FOXO4 for p53", "settings": "senescent HCT116-Myc-FOXO4 cells, 8 µM ES2, 1 hour", "description": "HCT116 cells were transduced with FOXO4 (NM_005938) human tagged ORF Lentiviral Particles (Origene, Cat# RC213185L1V) at 10^6 TU/mL. Cells were then cultured for seven passages. HCT116-Myc-FOXO4 were made senescent using 200 nM Doxorubicin at the final cell concentration of 24 million cells. Dividing cells were plated at concentration of 80 million cells. The following day, cells were treated with 8 µM ES2 for 0 or 1 hour. Nuclear protein was then isolated using NE-PER™ Nuclear and Cytoplasmic Extraction Reagents kit (Cat# 78833) then quantified via Pierce^TM BCA Protein Assay Kit (Cat# 23225) according to manufacturer's instructions. 400 µg of each nuclear lysate and 10 µL of provided positive control was used in the Thermo Scientific™ Pierce™ c-Myc-Tag IP/Co-IP Kit (Cat# 23620). The eluted protein (20 µL) was then loaded onto Bolt™ 4 to 12%, Bis-Tris, 1.0 mm, Mini Protein Gel, 10-well (Cat# NW04120BOX) and run at 120V for 60 minutes in 1X Invitrogen™ Bolt™ MOPS SDS Running Buffer using the Mini Gel Tank (Cat. A25977). Protein was then transferred onto 0.4 µm PVDF according to manufacturer protocol. The membrane was then blocked in 5% non-fat milk in 1x TBS-T (Cat# 03-500-537) for 60 minutes. […]"}, "FOXO4 foci": {"tested_on": "FOXO4 foci", "assay": "Immunofluorescence / quantitative imaging of FOXO4 foci", "description": "For all immunofluorescence experiments, cells were plated in 96-well plates (Cellvis P96-1.5P). At the end of each experiment, cells were washed once with PBS and then fixed with 4% paraformaldehyde for 10 minutes at room temperature. For experiments with caspase-3/7 staining, the Caspase-3/7 reagent (Thermo Scientific Cat# C10723) was added to live cells for 30 minutes prior to fixation. Fixed cells were washed with PBS and then permeabilized with ice-cold methanol at 4°C for 10 minutes. Cells were washed with PBS and then blocked for 30 minutes with 1% Bovine Serum Albumin (BSA) in PBS. […]\nQuantitative imaging was performed as described with the following exceptions. […] Quantification of fluorescence intensities was performed using CellProfiler. Briefly, the DAPI staining was used to create a nuclear mask, and fluorescence intensities of the stained markers (FOXO4, CDKN2A, CDKN1A, and TP53) and FOXO4 foci were measured within the nuclear mask. DAPI fluorescence intensity was also quantified and used for DNA content measurements. […]"}, "DLD1 and SW480 cells": {"tested_on": "DLD1 and SW480 cells", "assay": "ES2 viability (MTS) in TP53 mutant colorectal cancer cell lines", "settings": "DLD1 (S241F heterozygous), SW480 (R273H, P309S)", "description": "Cell lines were treated with chemotherapy, doxorubicin (Sigma, Cat. No. 2252) to induce senescence (200 nM for HCT116, 100 nM for B16-F10 and MCF7, 50 nM for SW480 and DLD-1, 40 nM for A375-Luc/iRFP and MCF10a). MCF7 cells were treated with CDK4/6 inhibitor, palbociclib (Selleck Chemicals: S1116) to induce senescence (5 µM). A375 cells were treated with Braf inhibitor, Dabrafenib (Selleck Chemicals: S2807), to induce senescence (10 µM). Peptide efficacy experiments were performed by seeding 10,000 – 20,000 cells in a 96-well plate. The cells were given doxorubicin twice to make the cells senescent. After removal of doxorubicin, the plate was treated with varying concentrations of peptide. The peptide was replenished daily for two days. Cellular proliferation was quantified using the Promega CellTiter 96™ AQueous One Solution Cell Proliferation Assay (MTS) after 2 hours according to the manufacturer's protocol (Promega, G3581). To control for the charge of ES2, ProteoJuice (Millipore Sigma, 71281) was used to deliver ES2 using the manufacturers protocol, except 50 µL of 2 mM ES2 was mixed with 25 µL of ProteoJuice. Varying concentrations of the mixture were administered to A375 cells along with a control of only ProteoJuice."}},
  "note": "Where no end group is shown, it is not given here.",
  "data": [
    {"sequence": "PRKGGRRRRAWGRRRRRRRRRRRRRRAPRKRLTLA [ES2]", "values": [
      {"measurement": "TP53 band co-immunoprecipitated with Myc-FOXO4", "setting": "FOXO4-TP53 interaction", "value": "a band at 53kDa that is eliminated after treating with ES2"},
      {"measurement": "concentration at which accumulation, co-localization with FOXO4 and disruption of focus formation observed", "setting": "FOXO4 foci; BODIPY-labelled ES2, A375 cells, 2 h", "value": "≥ 8", "unit": "µM"},
      {"measurement": "FOXO4 foci after ES2 addition", "setting": "FOXO4 foci; senescent A375 cells, ES2 8 µM for 4 h", "value": "caused a loss of FOXO4 foci"},
      {"measurement": "cell death in senescent TP53 mutant cells", "setting": "DLD1 and SW480 cells", "value": "effective at inducing cell death in senescent cells"}
    ]}
  ]
}
